Literature values, collected in patent publication US5763435A, “Sulfate conjugates of ursodeoxycholic acid, and their beneficial use in inflammatory disorders” (priority 1995, dated 1998).

How the values were obtained:
[1] = system: colonic epithelial cell; conditions: in vitro; cited from earlier work
[2] = rat, in vivo; cited from earlier work

Compound | Effect on colonic epithelial cell proliferation (in words) [1] | Metabolism to 3α,7α-disulfate, 6β-hydroxy 5β-cholanoic acid [2] [%]
C[C@H](CCC(=O)O)[C@H]1CC[C@H]2[C@@H]3CC[C@@H]4C[C@H](O)CC[C@]4(C)[C@H]3C[C@H](O)[C@]12C [deoxycholic, deoxycholic acid] | comitogenic | –
C[C@H](CCC(=O)NCC(=O)O)[C@H]1CC[C@H]2[C@@H]3[C@H](OS(=O)(=O)O)C[C@@H]4C[C@H](OS(=O)(=O)O)CC[C@]4(C)[C@H]3CC[C@]12C [glycochenodeoxycholic acid disulfates] | – | 90
C[C@H](CCC(=O)O)[C@H]1CC[C@H]2[C@@H]3CC[C@@H]4C[C@H](O)CC[C@]4(C)[C@H]3CC[C@]12C [lithocholic acids, lithocholic acid] | comitogenic | –
C[C@H](CCC(=O)NCCS(=O)(=O)O)[C@H]1CC[C@H]2[C@@H]3[C@H](OS(=O)(=O)O)C[C@@H]4C[C@H](OS(=O)(=O)O)CC[C@]4(C)[C@H]3CC[C@]12C [taurochenodeoxycholic acid disulfates] | – | 90
